Measurements taken from patent US12178880B2, “Antibody-drug conjugate, and intermediate thereof, preparation method therefor, and application thereof” (SHANGHAI FUDAN-ZHANGJIANG BIO-PHARMACEUTICAL CO., LTD., priority 2020, dated 2024).
Where two headings read alike, the source gives them in different places. *1 amine or outer side, *2 acyl side, *3 side chain or, on linkers, in order; H or OH if unused. Where a SMILES comes first, the peptide text is derived from it. [ ]: non-standard residue; d: D form. The star is where a group is joined. X1 = CC[C@@]1(O)C(=O)OCc2c1cc1n(c2=O)Cc2c-1nc1cc(F)c(C)c3c1c2[C@H](N*)CC3; Hexanoyl(6-maleimido) = O=C1C=CC(=O)N1CCCCCC(=O)*; NHCH2OCH2CO = O=C(COCN[*:1])[*:2]

How the values were obtained:
[1] = biological target: tissue proteinase B (Homo sapiens, UniProt P07858); test: In vitro enzyme digestion of linker-drug conjugates; assay type: biochemical; details: for speed of enzyme digestion (in words): pH 5.0 to 7.0
Protocol: The linker-drug conjugate (LE14 and GGFG-Dxd) was co-incubated with tissue proteinase B in three different pH (5.0, 6.0, 7.0) buffers. Samples were taken at different time points and entered into a high-performance liquid chromatography-mass spectrometry instrument. The external standard method (with DXD as the external standard) was used to determine the release percentage of the drug.

[2] = Coupling of linker-drug conjugates with other antibodies; assay type: physicochemical
[3] = test system: SK-BR-3 cell line; test: Killing activity of FDA026-LS13 before and after enzyme digestion; assay type: cell-based; details: 144 hours
Protocol: SK-BR-3 cell line was selected as the experimental cells. After the sample was incubated in tissue proteinase B system (100 mM sodium acetate-acetic acid buffer, 4 mM dithiothreitol, pH 5.0) at 37° C. for 4 hours, the obtained sample was diluted with culture medium to different concentrations. 8 concentrations (1.5 to 10-fold dilution) were set from 70 nM to 0.003 nM of SN-38 concentration. […] The IC50 value was calculated by reading the […] after chemical luminescent staining with CellTiter-Glo® Luminescent Cell Viability Assay.

**Q.** Which “Percentage of drug release in the sample” value ([1]; pH 5.0, 0 h) does the source give for `CC[C@@]1(O)C(=O)OCc2c1cc1n(c2=O)Cc2c-1nc1cc(F)c(C)c3c1c2[C@H](NC(=O)COCNC(=O)CNC(=O)[C@H](Cc1ccccc1)NC(=O)CNC(=O)CNC(=O)CCCCCN1C(=O)C=CC1=O)CC3` [GGFG-Dxd, reference compound] ({Hexanoyl(6-maleimido)}-GGFG[NHCH2OCH2CO]-X1) here?
**A.** The value was 21.62%.

**Q.** What about the “Percentage of drug release in the sample” value ([1]; pH 5.0, 1 h) of the same compound?
**A.** The value was 25%.

**Q.** What about the “Percentage of drug release in the sample” value ([1]; pH 5.0, 2 h) of the same compound?
**A.** The value was 25.85%.

**Q.** And the “Percentage of drug release in the sample” value ([1]; pH 5.0, 3 h)?
**A.** Its value is 27.76%.

**Q.** And the “Percentage of drug release in the sample” value ([1]; pH 5.0, 4 h)?
**A.** Its value is 29.72%.

**Q.** And the “Percentage of drug release in the sample” value ([1]; pH 5.0, 5 h)?
**A.** The value was 31.69%.

**Q.** And the “Percentage of drug release in the sample” value ([1]; pH 5.0, 6 h)?
**A.** The value was 34.17%.

**Q.** And the “speed of enzyme digestion (in words)” value [1]?
**A.** Its value is “slow speed of enzyme digestion”.

**Q.** What about the “Percentage of drug release in the sample” value ([1]; pH 6.0, 0 h) of the same compound?
**A.** The value was 23.58%.

**Q.** What about the “Percentage of drug release in the sample” value ([1]; pH 6.0, 1 h) of the same compound?
**A.** Its value is 24.8%.

**Q.** What about the “Percentage of drug release in the sample” value ([1]; pH 6.0, 2 h) of the same compound?
**A.** The value was 27.02%.

**Q.** And the “Percentage of drug release in the sample” value ([1]; pH 6.0, 3 h)?
**A.** Its value is 29.29%.

**Q.** What about the “Percentage of drug release in the sample” value ([1]; pH 6.0, 4 h) of the same compound?
**A.** Its value is 31.37%.

**Q.** And the “Percentage of drug release in the sample” value ([1]; pH 6.0, 5 h)?
**A.** The value was 33.05%.

**Q.** And the “Percentage of drug release in the sample” value ([1]; pH 6.0, 6 h)?
**A.** Its value is 35.95%.

**Q.** And the “Percentage of drug release in the sample” value ([1]; pH 7.0, 0 h)?
**A.** Its value is 22.98%.

**Q.** What about the “Percentage of drug release in the sample” value ([1]; pH 7.0, 1 h) of the same compound?
**A.** Its value is 26.53%.

**Q.** And the “Percentage of drug release in the sample” value ([1]; pH 7.0, 2 h)?
**A.** Its value is 29.52%.

**Q.** And the “Percentage of drug release in the sample” value ([1]; pH 7.0, 3 h)?
**A.** The value was 31.95%.

**Q.** And the “Percentage of drug release in the sample” value ([1]; pH 7.0, 4 h)?
**A.** Its value is 34.78%.

**Q.** And the “Percentage of drug release in the sample” value ([1]; pH 7.0, 5 h)?
**A.** Its value is 36.17%.

**Q.** What about the “Percentage of drug release in the sample” value ([1]; pH 7.0, 6 h) of the same compound?
**A.** Its value is 38.25%.

**Q.** And the “aggregation ratio when coupled with other antibodies” value [2]?
**A.** The value was “high aggregation ratio”.

**Q.** And the “precipitation when coupled with other antibodies” value [2]?
**A.** Its value is “produces precipitation”.

**Q.** Which “Percentage of drug release in the sample” value ([1]; pH 5.0, 0 h) does the source give for `CC[C@@]1(O)C(=O)OCc2c1cc1n(c2=O)Cc2c-1nc1cc(F)c(C)c3c1c2[C@@H](NC(=O)COCN(CCS(C)(=O)=O)C(=O)OCc1ccc(NC(=O)[C@H](C)NC(=O)[C@@H](NC(=O)CCCCCN2C(=O)C=CC2=O)C(C)C)cc1)CC3` [LE14] here?
**A.** Its value is 15%.

**Q.** What about the “Percentage of drug release in the sample” value ([1]; pH 5.0, 1 h) of the same compound?
**A.** The value was 96.93%.

**Q.** What about the “Percentage of drug release in the sample” value ([1]; pH 5.0, 2 h) of the same compound?
**A.** Its value is 98.35%.

**Q.** What about the “Percentage of drug release in the sample” value ([1]; pH 5.0, 3 h) of the same compound?
**A.** The value was 99.01%.

**Q.** And the “Percentage of drug release in the sample” value ([1]; pH 5.0, 4 h)?
**A.** The value was 99.21%.

**Q.** And the “Percentage of drug release in the sample” value ([1]; pH 5.0, 5 h)?
**A.** Its value is 99.32%.

**Q.** And the “Percentage of drug release in the sample” value ([1]; pH 5.0, 6 h)?
**A.** Its value is 97.39%.

**Q.** What about the “speed of enzyme digestion (in words)” value [1] of the same compound?
**A.** Its value is “quickly enzymatically digested”.

**Q.** What about the “Percentage of drug release in the sample” value ([1]; pH 6.0, 0 h) of the same compound?
**A.** Its value is 14.28%.

**Q.** What about the “Percentage of drug release in the sample” value ([1]; pH 6.0, 1 h) of the same compound?
**A.** The value was 95.98%.

**Q.** What about the “Percentage of drug release in the sample” value ([1]; pH 6.0, 2 h) of the same compound?
**A.** The value was 96.8%.

**Q.** What about the “Percentage of drug release in the sample” value ([1]; pH 6.0, 3 h) of the same compound?
**A.** Its value is 98.45%.

**Q.** What about the “Percentage of drug release in the sample” value ([1]; pH 6.0, 4 h) of the same compound?
**A.** Its value is 98.81%.

**Q.** What about the “Percentage of drug release in the sample” value ([1]; pH 6.0, 5 h) of the same compound?
**A.** The value was 98.9%.

**Q.** What about the “Percentage of drug release in the sample” value ([1]; pH 6.0, 6 h) of the same compound?
**A.** The value was 99%.

**Q.** What about the “Percentage of drug release in the sample” value ([1]; pH 7.0, 0 h) of the same compound?
**A.** Its value is 17.59%.

**Q.** What about the “Percentage of drug release in the sample” value ([1]; pH 7.0, 1 h) of the same compound?
**A.** The value was 98.05%.

**Q.** And the “Percentage of drug release in the sample” value ([1]; pH 7.0, 2 h)?
**A.** Its value is 99.08%.

**Q.** What about the “Percentage of drug release in the sample” value ([1]; pH 7.0, 3 h) of the same compound?
**A.** Its value is 99.33%.

**Q.** What about the “Percentage of drug release in the sample” value ([1]; pH 7.0, 4 h) of the same compound?
**A.** Its value is 99.2%.

**Q.** What about the “Percentage of drug release in the sample” value ([1]; pH 7.0, 5 h) of the same compound?
**A.** The value was 100%.

**Q.** What about the “Percentage of drug release in the sample” value ([1]; pH 7.0, 6 h) of the same compound?
**A.** The value was 99.39%.

**Q.** What does the source list for `CCc1c2c(nc3ccc(O)cc13)-c1cc3c(c(=O)n1C2)COC(=O)[C@]3(O)CC` [SN-38, 7-ethyl-10-hydroxycamptothecin]?
**A.** IC50 ([3]; read-out: IC50 (based on SN-38 equivalent) Before Enzyme Digestion): 7.13 nM; IC50 ([3]; after tissue proteinase B system, pH 5.0, 37° C., 4 hours, read-out: IC50 (based on SN-38 equivalent) After Enzyme Digestion): 7.32 nM
